The values below come from article PMC10218498, “Exploring BenzylethoxyAryl Urea Scaffolds for Multitarget Immunomodulation Therapies” (International Journal of Molecular Sciences, 2023).

Data set [1] relates to A-549 (pulmonary adenocarcinoma). The data set can be described thus: MTT cell proliferation assay, A-549. It counts as cell-based, human. The following applies: for IC50: Homo sapiens, A549, 48 h of treatment, read-out: IC50 A-549; for IC50 / effect on cancer cell proliferation (A-549), in words: MTT. The procedure:
(§1) The 3-(4,5-dimethylthiazol-2-yl)-2,5-diphenyltetrazolium bromide (MTT; Sigma Chemical Co.) dye reduction assay in 96-well microplates was used. […] After that, the supernatant was discarded and replaced by 100 µL of DMSO to dissolve formazan crystals. The absorbance was then read at 550 nm by spectrophotometry. For all concentrations of compound, cell viability was expressed as the percentage of the ratio between the mean absorbance of treated cells and the mean absorbance of untreated cells. Three independent experiments were performed, and the IC50 values (i.e., concentration half inhibiting cell proliferation) were graphically determined using GraphPad Prism 4 software.
In general terms: Formazan colour is commonly taken as a measure of viable cells.

Data set [2] has as its system HT-29 (colon adenocarcinoma). The data set can be described thus: MTT cell proliferation assay, HT-29. Type of data set: cell-based, human. The following applies: for IC50: Homo sapiens, HT-29, 48 h of treatment, read-out: IC50 HT-29; for IC50 / effect on cancer cell proliferation (HT-29), in words: MTT. The procedure: as §1
Another data set has as its system Jurkat T cells. Put plainly: MTT cell proliferation assay, Jurkat T cells. Type of data set: cell-based. The following applies: Homo sapiens, 48 h of treatment. Here is the method: (§2) This assay allowed us to establish the corresponding IC50 values (expressed as the concentration, in μM, at which 50% of cell viability is achieved), shown in Table 1.
(§3) In 96-well plates, 5 × 10^3 (HT-29, MCF-7, A549, HMEC-1, Jurkat, and HEK-293) cells per well were incubated with serial dilutions of the tested compounds in a total volume of 100 μL of their respective growth media. The 3-(4,5-dimethylthiazol-2-yl)-2,5-diphenyltetrazolium bromide (MTT; Sigma Chemical Co.) dye reduction assay in 96-well microplates was used. After 2 days of incubation (37 °C, 5% CO2 in a humid atmosphere), 10 μL of MTT (5 mg/mL in phosphate-buffered saline, PBS) was added to each well, and the plate was incubated for a further 3 h (37 °C). After that, the supernatant was discarded and replaced by 100 µL of DMSO to dissolve formazan crystals. The absorbance was then read at 550 nm by spectrophotometry. For all concentrations of compound, cell viability was expressed as the percentage of the ratio between the mean absorbance of treated cells and the mean absorbance of untreated cells. Three independent experiments were performed, and the IC50 values (i.e., concentration half inhibiting cell proliferation) were graphically determined using GraphPad Prism 4 software.

The subject of data set [3] is human microvessel endothelial cells (HMEC-1). The data set can be described thus: MTT cell proliferation assay, HMEC-1. It counts as cell-based. The following applies: 48 h of treatment. Here is the method:
as §2, §3

Data set [4] deals with HEK-293 (human embryonic kidney cells). The data set can be described thus: MTT cell proliferation assay, HEK-293. The following applies: HEK293, 48 h of treatment. It counts as cell-based. Here is the method: as §2, §3
Another data set deals with LCK. The data set can be described thus: Immunoblotting of OT-1 CTL signaling proteins: LCK. Type of data set: cell-based, mice. The following applies: OT-1, 20 μM, 24 h. The source says: (§4) We next studied the effect of our compounds on the signaling cascade downstream of the TCR. […] However, both the expression and phosphorylation of LCK were increased in response to all compounds. The effects on ZAP70 and LAT were more complex, with opposing effects on total protein expression versus phosphorylation. Thus, all compounds modulated signaling downstream of the TCR in a manner that is likely to impact T-cell activation and activity.
(§5) CD8+ cells were obtained from the inguinal, axillary, brachial, and mesenteric lymph nodes previously collected from OT-1 mice. Lymph node cells were isolated by mashing through a […] cell strainer. Cells were resuspended in IMDM cell media at a concentration of 0.3 million cells/mL. N4 ovalbumin peptide was added at a concentration of 10 nM, and cells were incubated for 48 h at 5% CO2, 37 °C. On day 2 from recollection, cells were pelleted at 1300 rpm for 5 min and washed with PBS to remove N4 peptide. The cell pellet was resuspended in fresh IMDM media in a new flask in a 0.3 million cells/mL and supplemented with IL-2 at 20 ng/mL. After incubation for a further 48 h (day 4), cells were re-seeded in fresh IMDM media at a concentration of 0.3 million cells/mL supplemented with IL-2 at 20 ng/mL. Cells were cultured for a further 48 h prior to use on day 6 in functional assays.
(§6) To study the effect of the compounds in the signaling pathway of CTLs, the compound was incubated for 24 h at 20 μM. After this time, cells were collected and washed twice in PBS and lysed in radioimmunoprecipitation assay (RIPA) lysis buffer (50 mM tris-HCl at pH 7.4, 150 mM sodium chloride, 5 mM EGTA, 0.1% SDS, 1% NP-40, and 1% deoxycholate) supplemented with a protease and phosphatase inhibitor cocktail (mini complete ULTRA Protease tablet and phosSTOP tablet from Roche, Basel, Switzerland). Lysates were clarified by high-speed centrifugation (17,000 rpm for 15 min at 4 °C). Protein concentration was measured using a Micro BCA Protein Assay (Thermo Scientific, Waltham, MA, USA), and 10 μg to 30 μg of total protein were supplemented with 2X SDS sample buffer [tris (pH 6.8), 20% glycerol, 5% SDS, b-mercaptoethanol, and bromophenol blue) and boiled at 95 °C for 5 min. […] Bound Ab was detected by incubation with anti-rabbit and anti-mouse horseradish peroxidase secondary Ab (Cell Signaling Technology) and visualized using the Bio-Rad ChemiDoc MP Imaging System.
On the technique in general: A western blot detects proteins with antibodies after separation by electrophoresis.

Another data set deals with Fyn. Put plainly: Immunoblotting of OT-1 CTL signaling proteins: FYN. It counts as cell-based, mice. The following applies: OT-1, 20 μM, 24 h.
Excerpt: as §4, §5, §6

In data set [5] the test system is HMEC-1 microtube formation. The data set can be described thus: Tube formation inhibition assay on Matrigel. Type of data set: cell-based, human. The following applies: HMEC-1 on Matrigel, 24 h. The procedure:
The capacity to inhibit the formation of a new vasculature network formed by HMEC-1 was evaluated on compounds 8 and 14 at different concentrations.
Wells of an IBIDI μ-slide angiogenesis (IBIDI, Martinsried, Germany) were coated with 15 μL of Matrigel® (10 mg/mL, BD Biosciences) at 4 °C. After gelatinization at 37 °C for 30 min, HMEC-1 cells were seeded at 2 × 10^4 cells/well in 25 μL of culture medium on top of the Matrigel and were incubated 30 min at 37 °C while are attached. Then, compounds were added and dissolved in 25 μL of culture medium, and after 24 h of incubation at 37 °C, tube formation was evaluated.

The IC50 is the midpoint of a concentration-inhibition curve. The melting point is the temperature of the solid-liquid transition.

Molecules are shown by their SMILES. Bounds are passed on as bounds.

For the molecule `COc1ccc(COc2cccc(NC(=O)Nc3ccccc3)c2)cc1` [Compound 1], the IC50 in data set [1] was 6 ± 3 µM; in data set [2], 21 ± 10 µM; with Jurkat T cells, over 100 µM; in [3] it was over 100 µM; in [4], 1.4 ± 0.2 µM.
Consider `COc1ccc(COc2cccc(NC(=O)Nc3cccc(F)c3)c2)cc1` [Compound 3], for which the melting point was 202 to 203 °C. Also, in data set [1], the IC50 was over 100 µM and the “effect on cancer cell proliferation (A-549), in words” value (“effect … (A-549), in words” for short) is reported as “no effect”. For the same molecule, in [2], the IC50 is over 100 µM and the “effect on cancer cell proliferation (HT-29), in words” value (“effect … (HT-29), in words” for short) is “no effect”. Further, the IC50 in the data set on Jurkat T cells was over 100 µM. In data set [3], this molecule came in with an IC50 of over 100 µM. Moreover, the IC50 in data set [4] is 3.7 ± 0.8 µM.
Take `COc1ccc(COc2cccc(NC(=O)Nc3ccccc3F)c2)cc1` [Compound 4]: the melting point was 185 to 186 °C. In data set [1], the IC50 is over 100 µM and the “effect … (A-549), in words” value is “no effect”. For the same molecule, in data set [2], the IC50 was over 100 µM and the “effect … (HT-29), in words” value is given as “no effect”. Also, the IC50 in the data set on Jurkat T cells was over 100 µM. This molecule yielded an IC50 in data set [3] of over 100 µM. In data set [4], this molecule showed an IC50 of 16 ± 4 µM.
As for `COc1ccc(COc2cccc(NC(=O)Nc3ccc(Cl)cc3)c2)cc1` [Compound 5], the IC50 in [1] was 15 ± 2 µM; in data set [2], 12 ± 4 µM; in the data set on Jurkat T cells, over 100 µM; in data set [3] it was over 100 µM; in data set [4] it was over 100 µM. Also, the “SI (A-549) (IC50HEK293/A-549)” value in data set [1] (selectivity index) is listed as over 7. Further, in [2] (selectivity index), the “SI (HT-29) (IC50HEK293/IC50HT-29)” value is recorded as over 8.
Take `COc1ccc(COc2cccc(NC(=O)Nc3cccc(Cl)c3)c2)cc1` [Compound 6]: the IC50 is over 100 µM in data set [1]; 38 ± 15 µM in data set [2]; over 100 µM in the data set on Jurkat T cells; over 100 µM in data set [3]; 3.3 ± 0.5 µM in [4]. The “effect … (HT-29), in words” value in [2] is listed as “only active in HT-29”.
In the case of `COc1ccc(COc2cccc(NC(=O)Nc3ccccc3Cl)c2)cc1` [Compound 7], the melting point came out at 183.4 °C. The IC50 in data set [1] was found to be 48 ± 3 µM. Also, the IC50 in data set [2] worked out at 50 ± 4 µM. In the data set on Jurkat T cells, this molecule registered an IC50 of over 100 µM. Further, in [3], the IC50 is over 100 µM. The 50% inhibitory concentration (IC50) in data set [4] worked out at 27 ± 9 µM.
Turning to `COc1ccc(COc2cccc(NC(=O)Nc3cccc(Br)c3)c2)cc1` [Compound 9], the melting point is 198.5 °C. Also, in data set [1], the IC50 is 3.9 ± 0.4 µM. The IC50 in [2] came out at 25 ± 2 µM. This molecule also displayed an IC50 in the data set with Jurkat T cells of over 100 µM. In the data set with LCK, the “LCK protein expression (Western blot quantification)” value came to 180, the “pY394-LCK protein expression (Western blot quantification)” value stood at 175 and the “pY505-LCK protein expression (Western blot quantification)” value amounted to 154. Moreover, the IC50 in [3] is over 100 µM. The “FYN protein expression (Western blot quantification)” value in the data set on Fyn is reported as 108. Also, the IC50 in data set [4] worked out at 0.7 ± 0.3 µM.
The molecule `COc1ccc(COc2cccc(NC(=O)Nc3ccccc3Br)c2)cc1` [Compound 10] registered a melting point of 198.5 °C. Also, in [1], the IC50 is 25 ± 1 µM. In addition, the IC50 in data set [2] was determined as 41 ± 5 µM. In the data set with Jurkat T cells, this molecule gave an IC50 of over 100 µM. The IC50 in [3] is over 100 µM. Further, in [4], half-maximal inhibition (IC50) was put at 8.7 ± 0.7 µM.
In turn, `COc1ccc(COc2cccc(NC(=O)Nc3cccc(OC)c3)c2)cc1` [Compound 12] registered a melting point of 137.5 to 168.9 °C. In addition, in [1], the IC50 was over 100 µM and the “effect … (A-549), in words” value is “no effect”. Further, in data set [2], the 50% inhibitory concentration (IC50) was over 100 µM and the “effect … (HT-29), in words” value is reported as “no effect”. The molecule also registered an IC50 in the data set on Jurkat T cells of over 100 µM. Moreover, the IC50 in data set [3] was over 100 µM. The IC50 in data set [4] was found to be 12 ± 1 µM.
On to `COc1ccc(COc2cccc(NC(=O)Nc3ccccc3OC)c2)cc1` [Compound 13], for which the melting point is 160 to 161.6 °C. Also, in data set [1], the concentration for half-maximal inhibition (IC50) is over 100 µM and the “effect … (A-549), in words” value is reported as “no effect”. In [2], the IC50 was over 100 µM and the “effect … (HT-29), in words” value is recorded as “no effect”. In addition, the IC50 with Jurkat T cells was over 100 µM. The IC50 in [3] was over 100 µM. This molecule also came in with an IC50 in [4] of over 100 µM.
On to `CCN(CC)CCNC(=O)c1c(C)[nH]c(/C=C2\C(=O)Nc3ccc(F)cc32)c1C` [Sunitinib, sunitinib, reference compound], for which the “Minimum Active Conc. (inhibition of microtube formation)” value in [5] is reported as 3 µM.
